Assay results taken from US5414010A, “Dimeric benzimidazoles as central nervous system agents” (Warner-Lambert Company, priority 1994, dated 1995).
pIC50: −log10 of the molar value.

Legend:
human D2 receptors = target: T1, human D2 receptors (Homo sapiens, UniProt P14416); test: Inhibition of [^3 H]spiperone binding to human D2 receptors
T1 construct: expressed in transfected cells
Method: (§1) Dopamine D2 antagonists are established as antipsychotic agents. More recently, the dopamine D3 receptor has been identified. On the basis of the localization of the dopamine D3 receptor in the limbic area of the brain, a selective D3 antagonist should show antipsychotic activity but not have the neurological side effects of D2 antagonists. […] Thus, the compounds of Formula I were tested for their ability to bind to dopamine receptors as measured by their inhibition of [^3 H]spiperone binding to the human D2 and D3 receptors in a receptor assay described by MacKenzie R. G., et al., Characterization of the human D3 dopamine receptor expressed in transfected cell lines, Eur. J. Pharmacol., 266:79 (1994); and for their ability to inhibit locomotor activity in mice and rats, a measure of antipsychotic activity, according to the assay described by McLean J. R., et al., Pharmacology, Biochemistry and Behavior, 8:97- 99 (1978). The above test methods are incorporated herein by reference.

human D3 receptors = target: T2, human D3 receptors (Homo sapiens, UniProt P35462); test: Inhibition of [^3 H]spiperone binding to human D3 receptors
T2 construct: expressed in transfected cells
T2 sequence (P35462 whole entry): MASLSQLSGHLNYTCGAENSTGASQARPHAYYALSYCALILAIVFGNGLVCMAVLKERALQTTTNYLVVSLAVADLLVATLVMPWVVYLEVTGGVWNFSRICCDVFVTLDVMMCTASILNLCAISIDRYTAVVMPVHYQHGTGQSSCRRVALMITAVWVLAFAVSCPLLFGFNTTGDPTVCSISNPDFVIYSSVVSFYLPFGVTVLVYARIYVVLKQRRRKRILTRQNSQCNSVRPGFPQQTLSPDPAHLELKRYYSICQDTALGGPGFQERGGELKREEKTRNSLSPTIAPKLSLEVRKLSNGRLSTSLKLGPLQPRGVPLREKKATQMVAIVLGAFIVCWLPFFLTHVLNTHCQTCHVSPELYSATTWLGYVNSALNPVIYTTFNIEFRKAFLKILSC
Method: as §1

rats = test: Inhibition of locomotor activity in rats; format: in vivo; conditions: Rattus norvegicus, IP
Excerpt: The compounds of Formula I are valuable dopaminergic agents. Dopamine D2 antagonists are established as antipsychotic agents. More recently, the dopamine D3 receptor has been identified. On the basis of the localization of the dopamine D3 receptor in the limbic area of the brain, a selective D3 antagonist should show antipsychotic activity but not have the neurological side effects of D2 antagonists. The tests employed indicate that compounds of Formula I bind selectively to the dopamine D3 receptor. Thus, the compounds of Formula I were tested for their ability to bind to dopamine receptors as measured by their inhibition of [^3 H]spiperone binding to the human D2 and D3 receptors in a receptor assay described by MacKenzie R. G., et al., Characterization of the human D3 dopamine receptor expressed in transfected cell lines, Eur. J. Pharmacol., 266:79 (1994); and for their ability to inhibit locomotor activity in mice and rats, a measure of antipsychotic activity, according to the assay described by McLean J. R., et al., Pharmacology, Biochemistry and Behavior, 8:97- 99 (1978). The above test methods are incorporated herein by reference.

T1 sequence (P14416 whole entry): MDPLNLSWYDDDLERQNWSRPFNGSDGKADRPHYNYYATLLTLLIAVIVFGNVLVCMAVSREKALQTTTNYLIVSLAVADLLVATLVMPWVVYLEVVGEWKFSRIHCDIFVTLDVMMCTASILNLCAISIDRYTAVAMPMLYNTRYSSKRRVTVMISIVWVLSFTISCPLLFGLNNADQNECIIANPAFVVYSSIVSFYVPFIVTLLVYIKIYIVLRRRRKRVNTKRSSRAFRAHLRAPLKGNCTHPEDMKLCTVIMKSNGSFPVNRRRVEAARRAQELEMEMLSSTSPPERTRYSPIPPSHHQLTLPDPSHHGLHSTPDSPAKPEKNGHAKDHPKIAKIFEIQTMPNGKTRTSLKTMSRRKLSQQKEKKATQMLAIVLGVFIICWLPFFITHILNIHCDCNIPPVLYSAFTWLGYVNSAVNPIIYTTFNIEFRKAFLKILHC

## CCN(CC)CCCOc1ccc(-c2nc3ccccc3n2C/C=C/Cn2c(-c3ccccc3)nc3ccccc32)cc1 [Example 13, Diethyl-[3-(4-{1-[4-(2-phenylbenzoimidazol-1-yl)but-2-enyl]-1H-benzoimidazol-2-yl}phenoxy)propyl]amine]
Human D2 receptors
  pIC50: 5.19

## C(=C\Cn1c(-c2ccc(OCCCN3CCCC3)cc2)nc2ccccc21)/Cn1c(-c2ccc(OCCCN3CCCC3)cc2)nc2ccccc21 [Example 1]
Human D3 receptors
  pIC50: 8.05

## CCN(CC)CCCOc1ccc(-c2nc3ccccc3n2C/C=C/Cn2c(-c3ccc(OCCCN(CC)CC)cc3)nc3ccccc32)cc1 [Example 10, E-(3-{4-[1-(4-{2-[4-(3-Diethylaminopropoxy)phenyl]benzoimidazol-1-yl}but-2-enyl)-1H-benzoimidazol-2-yl]phenoxy}propyl)diethylamine]
Human D3 receptors
  pIC50: 7.80
rats
  ED50: 3.9 mg/kg

## C(=C\Cn1c(-c2ccc(OCCCN3CCCCC3)cc2)nc2ccccc21)/Cn1c(-c2ccc(OCCCN3CCCCC3)cc2)nc2ccccc21 [Example 6]
Human D3 receptors
  pIC50: 8.05

## CCN(CC)CCCOc1ccc(-c2nc3ccccc3n2CCCCn2c(-c3ccc(OCCCN(CC)CC)cc3)nc3ccccc32)cc1 [Example 12, (3-{4-[1-(4-{2-[4-(3-Diethylaminopropoxy)phenyl]benzoimidazol-1-yl}butyl)-1H-benzoimidazol-2-yl]phenoxy}propyl)diethylamine]
Human D3 receptors
  pIC50: 7.44
Human D2 receptors
  pIC50: 5.97
rats
  ED50: 2.8 mg/kg

## NCCCOc1ccc(-c2nc3ccccc3n2C/C=C/Cn2c(-c3ccc(OCCCN4CCN(c5ccccc5)CC4)cc3)nc3ccccc32)cc1 [Example 15]
Human D3 receptors
  pIC50: 7.72
Human D2 receptors
  pIC50: 6.10

## CC(C)N(C)CCCOc1ccc(-c2nc3ccccc3n2C/C=C/Cn2c(-c3ccc(OCCCN(C)C(C)C)cc3)nc3ccccc32)cc1 [Example 9, E-Isopropyl-[3-(4-{1-[4-(2-{4-[3-(isopropylmethylamino)propoxy]phenyl}benzoimidazol-1-yl)but-2-enyl]-1H-benzoimidazol-2-yl}phenoxy)propyl]methylamine]
Human D3 receptors
  pIC50: 8.22
Human D2 receptors
  pIC50: 6.70

## CCN1CCCC1CNC(=O)c1ccc(-c2nc3ccccc3n2CCCCn2c(-c3ccc(C(=O)NCC4CCCN4CC)cc3)nc3ccccc32)cc1 (centres unmarked) [Example 16]
Human D3 receptors
  pIC50: 7.07
Human D2 receptors
  pIC50: 5.85

## CCN(CC)CCCOc1cccc(-c2nc3ccccc3n2C/C=C/Cn2c(-c3cccc(OCCCN(CC)CC)c3)nc3ccccc32)c1 [Example 7, E-(3-{3-[1-(4-{2-[3-(3-Diethylaminopropoxy)phenyl]benzoimidazol-1-yl}but-2-enyl)-1H-benzoimidazol-2-yl]phenoxy}propyl)diethylamine]
Human D3 receptors
  pIC50: 7.80
Human D2 receptors
  pIC50: 5.61

## CN(C)CCCOc1ccc(-c2nc3ccccc3n2C/C=C/Cn2c(-c3ccc(OCCCN(C)C)cc3)nc3ccccc32)cc1 [Example 5, E-(3-{4-[1-(4-{2-[4-(3-Dimethylaminopropoxy)phenyl]benzoimidazol-1-yl}but-2-enyl)-1H-benzoimidazol-2-yl]phenoxy}propyl)dimethylamine]
Human D3 receptors
  pIC50: 6.84

## CCCN(CCC)CCCOc1ccc(-c2nc3ccccc3n2CCCCn2c(-c3ccc(OCCCN(CCC)CCC)cc3)nc3ccccc32)cc1 [Example 11, (3-{4-[1-(4-{2-[4-(3-Dipropylaminopropoxy)phenyl]benzoimidazol-1-yl}butyl)-1H-benzoimidazol-2-yl]phenoxy}propyl)dipropylamine]
Human D3 receptors
  pIC50: 7.80
Human D2 receptors
  pIC50: 5.56

## CCCCN(CCCC)CCCOc1ccc(-c2nc3ccccc3n2C/C=C/Cn2c(-c3ccc(OCCCN(CCCC)CCCC)cc3)nc3ccccc32)cc1 [Example 8, E-Dibutyl-(3-{4-[1-(4-{2-[4-(3-dibutylaminopropoxy)phenyl]benzoimidazol-1-yl}-but-2-enyl)-1H-benzoimidazol-2-yl]phenoxy}propyl)amine]
Human D2 receptors
  pIC50: 6.37

## CCN(CC)CCNC(=O)c1ccc(-c2nc3ccccc3n2CCCCn2c(-c3ccc(C(=O)NCCN(CC)CC)cc3)nc3ccccc32)cc1 [Example 17]
Human D3 receptors
  pIC50: 6.96
Human D2 receptors
  pIC50: 5.51

## CCCN(CCC)CCCOc1ccc(-c2nc3ccccc3n2C/C=C/Cn2c(-c3ccc(OCCCN(CCC)CCC)cc3)nc3ccccc32)cc1 [Example 2, E-(3-{4-[1-(4-{2-[4-(3-Dipropylaminopropoxy)phenyl]benzoimidazol-1-yl}but-2-enyl)-1H-benzoimidazol-2-yl]phenoxy}propyl)dipropylamine]
Human D3 receptors
  pIC50: 8.30
